The record followed here is ChEMBL document CHEMBL4840371 (Bioorg Med Chem, 2021).

A short description of data set [1]: Inhibition of Escherichia coli recombinant his-tagged DHDPS using (S)-aspartate-semialdehyde as a substrate preincubated for 12 mins followed by substrate addition by UV-Vis spectrophotometer based coupled DHDPS-DHDPR assay.
The subject of a further data set is HEK293. Nature of the data set: Cytotoxicity against HEK293 cells assessed as reduction in cell viability measured after 48 hrs by MTT assay. Type of data set: cell-based. The following applies: Homo sapiens, HEK293, 48 h. For orientation: Tetrazolium dyes change colour on reduction, which living cells bring about.
The next data set deals with HepG2. Nature of the data set: Cytotoxicity against human HepG2 cells assessed as reduction in cell viability measured after 48 hrs by MTT assay. Type of data set: cell-based. The settings on record: HepG2, 48 h.
Data set [2] can be described thus: Aqueous solubility of the compound. Type of data set: physicochemical. The settings on record: buffer.
The nature of data set [3]: Inhibition of Campylobacter jejuni DHDPS using ASA as a substrate in presence of NADPH by DHDPS-DHDPR coupled assay.

By IC50 is commonly meant the point on the concentration scale where inhibition reaches its midpoint. By EC50 is commonly meant the concentration needed to bring the measured effect to its halfway point. Regarding `O=C(O)CN1C(=O)S/C(=C\c2ccc3ccccc3c2)C1=O`, the IC50 in data set [1] worked out at 76 µM. Besides, the EC50 with HEK293 and in the data set on HepG2 was 200 µM in each case.
In general, solubility refers to the dissolved amount per volume that the medium holds. In the case of `CCOC(=O)CSC1=NC(=O)/C(=C/c2ccc(OC)cc2)S1`, in data set [2], the solubility result is given as “Insoluble”.
On to `O=C(O)CN1C(=O)S/C(=C\c2cccnc2)C1=O`, for which, in data set [1], the concentration for half-maximal inhibition (IC50) was found to be 138 µM.
For `COc1ccc(/C=C2\SC(=S)N(CC(=O)O)C2=O)cc1`, the IC50 in data set [1] was found to be 540 µM. The EC50 with HEK293 and in the data set on HepG2 was 200 µM in each case.
On to `O=C(O)CN1C(=O)S/C(=C\c2ccc(OCc3ccccc3)cc2)C1=O`, for which the IC50 in data set [1] was 71 µM. Moreover, the EC50 in the data set with HEK293 and in the data set on HepG2 was 200 µM throughout.
Regarding `COc1cccc(/C=C2\SC(=O)N(CC(=O)O)C2=O)c1`, the IC50 in data set [1] was 110 µM.
Regarding `COc1ccc(/C=C2\NC(=S)NC2=O)cc1`, in data set [1], the IC50 was determined as 323 µM.
For `COc1ccc(/C=C2\SC(=S)NC2=O)cc1`, the IC50 in data set [1] was over 500 µM.
`Cc1ccc(/C=C2\SC(=O)N(CC(=O)O)C2=O)cc1`: the IC50 in data set [1] worked out at 80 µM.
On to `COc1ccc(/C=C2\SC(=O)N(CC(=O)O)C2=O)cc1`, for which the IC50 in data set [1] was 47 µM. The EC50 with HEK293 and with HepG2 was over 500 µM throughout.
For the compound `CN(C)c1ccc(/C=C2\SC(=O)N(CC(=O)O)C2=O)cc1`, the IC50 in data set [1] is over 500 µM.
For the compound `COc1ccc(/C=C2\NC(=O)NC2=O)cc1`, the IC50 in data set [1] is 124 µM.
For `COc1ccc(/C=C2\SC(=O)N(CC(N)=O)C2=O)cc1`, the solubility in data set [2] (read-out: solubility) was under 31 µM.
Usually Ki stands for the equilibrium dissociation constant of an inhibitor or competing ligand from its target. Turning to `NCCCC[C@@](N)(CC[C@](N)(CCCCN)C(=O)O)C(=O)O`, the Ki in data set [3] was determined as 0.14 µM.
As to `COc1ccc(/C=C2\SC(=O)N(CC(=O)O)C2=O)cc1OC`, the IC50 in data set [1] amounted to 116 µM.
The same measure, in the same setting: the value for `CCOc1ccc(/C=C2\SC(=O)N(CC(=O)O)C2=O)cc1` was 72 µM; that for `O=C(O)CN1C(=O)S/C(=C\c2ccccc2Cl)C1=O` was 137 µM.
The same measure, in the same setting: in the case of `O=C(O)CN1C(=O)S/C(=C\c2ccc(C(=O)O)cc2)C1=O` it was 70 µM.
On to `O=C(O)CN1C(=O)S/C(=C\c2cccc3ccccc23)C1=O`, for which, in data set [1], the IC50 came out at 97 µM. Besides, the EC50 in the data set with HEK293 and in the data set on HepG2 was over 500 µM each time.
Take `O=C(O)CN1C(=O)S/C(=C\c2ccccn2)C1=O`: the IC50 in data set [1] came out at 80 µM.
As to `COc1ccc(/C=C2\SC(=O)N(CC#N)C2=O)cc1`, in data set [2] (read-out: solubility), the solubility was under 250 µM.
Regarding `COc1ccc(/C=C2\SC(=O)N(CCCC(=O)O)C2=O)cc1`, the IC50 in data set [1] worked out at 67 µM.
Turning to `COc1ccc(/C=C2\NC(=O)N(CC(=O)O)C2=O)cc1`, the IC50 in data set [1] came to 66 µM. The EC50 in the data set on HEK293 and in the data set with HepG2 was over 500 µM throughout.
Turning to `O=C(O)CN1C(=O)S/C(=C\c2ccccc2)C1=O`, in data set [1], the IC50 amounted to 80 µM.
For `O=C(O)CN1C(=O)S/C(=C\c2ccc(F)cc2)C1=O`, the IC50 in data set [1] worked out at 92 µM.
Turning to `O=C(O)CN1C(=O)S/C(=C\c2ccc(OC(F)(F)F)cc2)C1=O`, the IC50 in data set [1] was found to be 98 µM.
On the same count and under the same terms, in the case of `N#Cc1ccc(/C=C2\SC(=O)N(CC(=O)O)C2=O)cc1` it was 80 µM; in that of `O=C(O)CN1C(=O)S/C(=C\c2ccc(O)cc2O)C1=O`, 162 µM.
In the case of `COc1ccc(CC2SC(=O)N(CC(=O)O)C2=O)cc1` (stereo not given), the IC50 in data set [1] was over 500 µM.
On the same count and under the same terms, the value for `CC(=O)Nc1ccc(/C=C2\SC(=O)N(CC(=O)O)C2=O)cc1` was 68 µM; that for `O=C(O)CN1C(=O)S/C(=C\c2c[nH]cn2)C1=O` was 94 µM.
As for `COc1ccc(/C=C2\SC(=O)N(Cc3nnn[nH]3)C2=O)cc1`, in data set [1], the IC50 is 89 µM.
As to `CSc1ccc(/C=C2\SC(=O)N(CC(=O)O)C2=O)cc1`, the IC50 in data set [1] came to 125 µM.
On to `O=C(O)CN1C(=O)S/C(=C\c2ccc(Br)cc2)C1=O`, for which the IC50 in data set [1] was found to be 74 µM.
Turning to `O=C(O)CN1C(=O)S/C(=C\c2ccc(O)c(Cl)c2)C1=O`, the 50% inhibitory concentration (IC50) in data set [1] was 316 µM.
`O=C(O)CN1C(=O)S/C(=C\c2ccncc2)C1=O`: the IC50 in data set [1] came out at 90 µM.
As for `O=C(O)CN1C(=O)S/C(=C\c2ccc3ccccc3n2)C1=O`, in data set [1], the IC50 came out at 110 µM.
The same measure, in the same setting: in the case of `O=C(O)CN1C(=O)S/C(=C\c2ccc(C(F)(F)F)cc2)C1=O` it was 122 µM.
In the case of `COc1ccc(/C=C2\SC(=O)N(CCC(=O)O)C2=O)cc1`, the IC50 in data set [1] is over 250 µM.
The same measure, in the same setting: in the case of `O=C(O)CN1C(=O)S/C(=C\c2ccc(O)cc2)C1=O` it was 103 µM.
In the case of `COc1ccc(/C=C2\SC(=O)N(CC(=O)O)C2=O)cn1`, the IC50 in data set [1] came to 46 µM. Further, the EC50 in the data set with HEK293 and with HepG2 was over 500 µM each time.
Regarding `O=C(O)CN1C(=O)S/C(=C\c2cccc(Cl)c2)C1=O`, the IC50 in data set [1] was found to be 121 µM.
With `O=C(O)CN1C(=O)S/C(=C\c2cccs2)C1=O`, the IC50 in data set [1] came to 72 µM. The EC50 with HEK293 and in the data set with HepG2 was over 500 µM in each case.
Turning to `COc1cccc(/C=C2\SC(=O)N(CC(=O)O)C2=O)c1OC`, the IC50 in data set [1] worked out at 108 µM.
Turning to `Nc1ccc(/C=C2\SC(=O)N(CC(=O)O)C2=O)cc1`, the half-inhibitory concentration (IC50) in data set [1] came to 153 µM.
On to `COc1ccc(/C=C2\NC(=S)N(CC(=O)O)C2=O)cc1`, for which, in data set [1], the IC50 is 222 µM. Also, the EC50 in the data set on HEK293 and in the data set on HepG2 was over 500 µM each time.
Turning to `COc1ccccc1/C=C1\SC(=O)N(CC(=O)O)C1=O`, in data set [1], the IC50 stood at 71 µM.
Same read-out and setting: in the case of `O=C(O)CN1C(=O)S/C(=C\c2ccc(Cl)cc2)C1=O` it was 84 µM.
As for `O=C(O)CN1C(=O)S/C(=C\c2ccsc2)C1=O`, the IC50 in data set [1] was found to be 87 µM. Moreover, the EC50 in the data set with HEK293 and in the data set with HepG2 was over 500 µM each time.
On to `O=C(O)CN1C(=O)S/C(=C\c2ccc(=O)[nH]c2)C1=O`, for which the IC50 in data set [1] is 59 µM.
Still for that read-out and setting: the value for `COc1ccc(/C=C2\SC(=N)NC2=O)cc1` was 156 µM.
Consider `COc1ccc(/C=C2\SC(=O)NC2=O)cc1`, for which the IC50 in data set [1] amounted to 71 µM. The EC50 in the data set on HEK293 was 172 µM; in the data set with HepG2 it was 200 µM.
Turning to `COc1ccc(C=C2SC(=O)N(CC(=O)O)C2=O)cc1` (mixture of isomers), the IC50 in data set [1] turned out to be 39 µM.
